Assays:
PDGFβ [1] = target: T1, PDGFβ (Homo sapiens, UniProt P09619); experiment: PDGF stimulated Ca2+ signal in vitro (FLIPR); format: cell-based; design: host or cells: NHDF-Ad (normal human dermal fibroblasts); settings: NHDF-Ad, PDGF stimulation 10 ng/mL; Table IV, amide or urea linker; read-out: PDGFβ Cellular IC50
PDGFβ [2] = target: T1, PDGFβ; experiment: PDGFβ enzyme assay; format: biochemical; settings: Table IV, amide or urea linker
VEGFR1 = VEGFR1 (Homo sapiens, UniProt P17948); experiment: VEGFR1 enzyme assay; format: biochemical; settings: Table IV, amide or urea linker
[3] = target: T2, human VEGF receptor (VEGFR-2) (Homo sapiens, UniProt P35968); experiment: VEGFR2 kinase assay; format: biochemical; settings: His-VEGFR-2 cytoplasmic domain, 3.6 μM ATP; Table IV, amide or urea linker; read-out: VEGFR2 Enzyme IC50
T2 construct: The cytoplasmic domain of the human VEGF receptor (VEGFR-2) was expressed; His; made in house; host or cells: insect cells (baculovirus)
How it was run: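 His-tagged VEGFR-2 cytoplasmic domain from baculovirus-infected insect cells phosphorylating plate-bound poly-Glu-Tyr (4:1). IC50 from blank-subtracted optical density versus compound concentration.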

VEGFR2 = VEGFR2 (Homo sapiens, UniProt P35968); experiment: VEGF stimulated Ca++ signal in vitro (FLIPR)
VEGFR2, sequence (P35968 20-1356): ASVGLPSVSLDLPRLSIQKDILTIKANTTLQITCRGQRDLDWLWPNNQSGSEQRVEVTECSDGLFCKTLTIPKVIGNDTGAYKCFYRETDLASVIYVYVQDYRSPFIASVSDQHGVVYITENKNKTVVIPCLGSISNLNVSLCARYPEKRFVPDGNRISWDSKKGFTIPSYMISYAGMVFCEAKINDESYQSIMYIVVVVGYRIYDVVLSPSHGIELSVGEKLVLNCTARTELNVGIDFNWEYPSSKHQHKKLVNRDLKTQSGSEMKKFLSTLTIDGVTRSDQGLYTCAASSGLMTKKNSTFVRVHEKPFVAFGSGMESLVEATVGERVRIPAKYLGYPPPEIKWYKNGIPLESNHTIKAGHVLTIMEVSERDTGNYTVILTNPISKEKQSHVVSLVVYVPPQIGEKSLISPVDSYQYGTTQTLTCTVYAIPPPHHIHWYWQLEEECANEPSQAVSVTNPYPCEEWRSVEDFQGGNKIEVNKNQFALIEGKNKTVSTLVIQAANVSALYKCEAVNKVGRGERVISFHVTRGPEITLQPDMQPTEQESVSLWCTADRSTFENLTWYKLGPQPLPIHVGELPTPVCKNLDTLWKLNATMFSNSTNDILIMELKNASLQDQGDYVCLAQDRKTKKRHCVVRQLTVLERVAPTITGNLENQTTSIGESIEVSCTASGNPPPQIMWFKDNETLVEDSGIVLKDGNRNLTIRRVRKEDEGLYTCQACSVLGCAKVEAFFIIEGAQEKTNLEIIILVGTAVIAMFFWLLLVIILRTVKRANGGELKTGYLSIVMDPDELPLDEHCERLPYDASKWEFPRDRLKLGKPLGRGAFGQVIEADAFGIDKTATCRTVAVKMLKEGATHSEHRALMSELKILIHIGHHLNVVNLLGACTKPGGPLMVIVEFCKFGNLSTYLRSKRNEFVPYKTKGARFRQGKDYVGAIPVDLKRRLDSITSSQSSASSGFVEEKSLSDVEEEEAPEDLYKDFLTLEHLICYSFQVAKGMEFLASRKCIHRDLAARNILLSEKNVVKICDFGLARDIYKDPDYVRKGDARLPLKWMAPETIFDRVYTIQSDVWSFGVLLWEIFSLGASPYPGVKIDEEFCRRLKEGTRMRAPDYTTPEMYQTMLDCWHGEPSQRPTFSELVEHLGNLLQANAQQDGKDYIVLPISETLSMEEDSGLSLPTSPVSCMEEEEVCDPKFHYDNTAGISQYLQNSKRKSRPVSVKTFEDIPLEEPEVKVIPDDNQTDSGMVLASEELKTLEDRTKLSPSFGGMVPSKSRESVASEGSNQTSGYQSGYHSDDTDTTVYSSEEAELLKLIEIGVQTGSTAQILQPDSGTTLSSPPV
Procedure: VEGF Stimulated Ca^++Signal in Vitro
Automated FLIPR (Fluorometric Imaging Plate Reader) technology was used to screen for inhibitors of VEGF induced increases in intracellular calcium levels in fluorescent dye loaded endothelial cells. HUVEC (human umbilical vein endothelial cells) (Clonetics) were seeded in 96-well fibronectin coated black-walled plates overnight at 37 degree. C./5% CO2. […] C. Cells were washed 4 times (Original Cell Wash, Labsystems) to remove extracellular dye. […] Data were generated by determining max-min fluorescence levels for unstimulated, stimulated, and drug treated samples. IC50 values for test compounds were calculated from % inhibition of VEGF stimulated responses in the absence of inhibitor.

T2 sequence (P35968 786-1356 limits assumed): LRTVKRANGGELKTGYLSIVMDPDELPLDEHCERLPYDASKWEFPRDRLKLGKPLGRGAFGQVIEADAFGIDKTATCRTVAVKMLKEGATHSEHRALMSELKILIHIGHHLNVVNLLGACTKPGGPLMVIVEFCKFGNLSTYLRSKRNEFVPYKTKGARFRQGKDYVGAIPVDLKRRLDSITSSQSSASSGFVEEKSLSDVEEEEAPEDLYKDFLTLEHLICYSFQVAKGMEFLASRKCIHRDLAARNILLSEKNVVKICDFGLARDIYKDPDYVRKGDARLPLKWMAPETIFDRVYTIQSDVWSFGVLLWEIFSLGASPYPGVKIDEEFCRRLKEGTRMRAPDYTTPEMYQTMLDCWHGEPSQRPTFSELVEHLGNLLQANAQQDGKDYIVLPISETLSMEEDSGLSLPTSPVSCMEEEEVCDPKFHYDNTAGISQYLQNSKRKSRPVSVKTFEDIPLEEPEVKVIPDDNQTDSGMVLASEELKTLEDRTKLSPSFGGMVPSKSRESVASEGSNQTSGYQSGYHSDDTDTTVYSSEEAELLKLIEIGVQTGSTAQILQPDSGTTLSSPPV
T1 sequence (P09619 33-1106): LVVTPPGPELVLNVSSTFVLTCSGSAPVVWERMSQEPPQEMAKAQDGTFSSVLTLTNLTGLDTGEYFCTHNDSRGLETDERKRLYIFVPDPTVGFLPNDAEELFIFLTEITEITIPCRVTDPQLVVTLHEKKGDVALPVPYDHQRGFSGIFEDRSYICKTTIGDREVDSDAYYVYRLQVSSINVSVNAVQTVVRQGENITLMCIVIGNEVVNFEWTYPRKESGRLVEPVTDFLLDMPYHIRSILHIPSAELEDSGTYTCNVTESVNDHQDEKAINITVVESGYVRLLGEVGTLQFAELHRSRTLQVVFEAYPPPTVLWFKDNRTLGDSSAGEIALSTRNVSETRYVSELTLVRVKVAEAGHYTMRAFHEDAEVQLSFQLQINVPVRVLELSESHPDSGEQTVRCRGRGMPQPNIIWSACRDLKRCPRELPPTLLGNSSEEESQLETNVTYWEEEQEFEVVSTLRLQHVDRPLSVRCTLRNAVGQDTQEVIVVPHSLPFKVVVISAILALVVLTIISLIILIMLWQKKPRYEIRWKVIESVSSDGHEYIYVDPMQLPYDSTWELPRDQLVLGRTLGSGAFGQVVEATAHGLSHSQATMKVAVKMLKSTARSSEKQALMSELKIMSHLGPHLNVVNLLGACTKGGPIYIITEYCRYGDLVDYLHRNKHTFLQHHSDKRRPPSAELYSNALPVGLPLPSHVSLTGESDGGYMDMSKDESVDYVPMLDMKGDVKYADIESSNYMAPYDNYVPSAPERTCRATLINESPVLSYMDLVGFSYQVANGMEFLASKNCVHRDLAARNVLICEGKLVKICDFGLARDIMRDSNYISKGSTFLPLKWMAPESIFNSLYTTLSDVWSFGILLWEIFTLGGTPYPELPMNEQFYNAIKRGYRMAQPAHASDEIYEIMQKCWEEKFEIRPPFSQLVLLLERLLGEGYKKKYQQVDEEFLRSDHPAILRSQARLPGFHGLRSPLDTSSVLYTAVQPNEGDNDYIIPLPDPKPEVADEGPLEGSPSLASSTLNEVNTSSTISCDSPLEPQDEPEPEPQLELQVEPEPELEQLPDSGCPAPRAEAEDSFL
VEGFR1, sequence (P17948 27-1338, species assumed): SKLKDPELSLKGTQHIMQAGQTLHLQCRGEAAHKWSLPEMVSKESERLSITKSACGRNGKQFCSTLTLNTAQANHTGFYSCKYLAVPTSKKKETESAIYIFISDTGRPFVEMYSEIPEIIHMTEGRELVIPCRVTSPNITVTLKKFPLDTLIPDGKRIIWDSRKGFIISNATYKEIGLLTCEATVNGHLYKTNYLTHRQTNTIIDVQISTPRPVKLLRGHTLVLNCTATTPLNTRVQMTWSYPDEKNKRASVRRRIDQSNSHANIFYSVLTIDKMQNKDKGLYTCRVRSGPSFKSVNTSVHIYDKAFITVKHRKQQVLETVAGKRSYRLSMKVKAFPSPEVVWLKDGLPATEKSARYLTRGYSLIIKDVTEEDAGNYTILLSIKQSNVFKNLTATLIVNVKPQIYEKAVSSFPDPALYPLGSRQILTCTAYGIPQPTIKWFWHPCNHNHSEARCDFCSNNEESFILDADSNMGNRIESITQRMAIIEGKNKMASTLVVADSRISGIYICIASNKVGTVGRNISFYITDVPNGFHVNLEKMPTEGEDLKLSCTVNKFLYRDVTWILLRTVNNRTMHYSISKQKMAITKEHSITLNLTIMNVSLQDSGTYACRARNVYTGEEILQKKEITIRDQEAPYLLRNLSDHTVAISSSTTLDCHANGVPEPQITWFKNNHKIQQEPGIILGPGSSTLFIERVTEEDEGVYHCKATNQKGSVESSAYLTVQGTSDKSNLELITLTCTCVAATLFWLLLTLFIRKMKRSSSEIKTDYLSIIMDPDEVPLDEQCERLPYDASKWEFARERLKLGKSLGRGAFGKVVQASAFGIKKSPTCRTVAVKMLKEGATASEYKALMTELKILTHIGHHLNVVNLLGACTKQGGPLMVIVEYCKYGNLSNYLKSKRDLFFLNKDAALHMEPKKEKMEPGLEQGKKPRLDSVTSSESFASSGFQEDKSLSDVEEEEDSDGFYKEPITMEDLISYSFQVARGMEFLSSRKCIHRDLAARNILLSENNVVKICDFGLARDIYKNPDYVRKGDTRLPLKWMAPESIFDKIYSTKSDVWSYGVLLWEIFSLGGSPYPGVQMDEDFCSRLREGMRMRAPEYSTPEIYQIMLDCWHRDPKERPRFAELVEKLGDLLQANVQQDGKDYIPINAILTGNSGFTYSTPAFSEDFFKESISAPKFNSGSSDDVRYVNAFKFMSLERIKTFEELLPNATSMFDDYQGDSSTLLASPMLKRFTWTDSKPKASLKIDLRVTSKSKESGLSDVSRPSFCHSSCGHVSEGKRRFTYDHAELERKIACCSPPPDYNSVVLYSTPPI

Row | SMILES | IC50 (PDGFβ [1]) [nM] | IC50 (PDGFβ [2]) [nM] | IC50 (VEGFR1) [nM] | IC50 [3] [nM] | IC50 (VEGFR2) [nM]
1 | COC(=O)CCNC(=O)c1c[nH]c(-c2cc(Oc3ccc(NC(=O)Nc4cc(C)ccc4F)c(F)c3)ccn2)c1 [Example 175, methyl 3-{[(5-{4-[3-fluoro-4-({[(2-fluoro-5-methylphenyl)amino]carbonyl}amino)phenoxy]pyridin-2-yl}-1H-pyrrol-3-yl)carbonyl]amino}propanoate] | 32 | 34 | – | – | –
2 | COC(=O)CCCNC(=O)c1c[nH]c(-c2cc(Oc3ccc(NC(=O)Nc4cc(C)ccc4F)cc3)ccn2)c1 [Example 176, methyl 4-{[(5-{4-[4-({[(2-fluoro-5-methylphenyl)amino]carbonyl}amino)phenoxy]pyridin-2-yl}-1H-pyrrol-3-yl)carbonyl]amino}butanoate] | 78 | 38 | – | – | –
3 | Cc1ccc(F)c(NC(=O)Nc2ccc(Oc3ccnc(-c4cc(C(=O)NCCNC(=O)OC(C)(C)C)c[nH]4)c3)cc2F)c1 [Example 216, tert-butyl (2-{[(5-{4-[3-fluoro-4-({[(2-fluoro-5-methylphenyl)amino]carbonyl}amino)phenoxy]pyridin-2-yl}-1H-pyrrol-3-yl)carbonyl]amino}ethyl)carbamate] | 214 | 59 | 16 | 17 | –
4 | Cc1ccc(F)c(NC(=O)Nc2ccc(Oc3ccnc(-c4cc(C(=O)OCCCN5CCOCC5)c[nH]4)c3)cc2F)c1 [Example 229, 3-morpholin-4-ylpropyl 5-{4-[3-fluoro-4-({[(2-fluoro-5-methylphenyl)amino]carbonyl}amino)phenoxy]pyridin-2-yl}-1H-pyrrole-3-carboxylate] | – | 9 | 11 | 11 | 13
5 | COC(=O)CC[C@H](NC(=O)c1c[nH]c(-c2cc(Oc3ccc(NC(=O)Nc4cccc(C)c4)c(F)c3)ccn2)c1)C(=O)OC [Example 230, dimethyl 2-{[(5-{4-[3-fluoro-4-({[(3-methylphenyl)amino]carbonyl}amino)phenoxy]pyridin-2-yl}-1H-pyrrol-3-yl)carbonyl]amino}pentanedioate] | 31 | 12 | 9 | 6 | 2
6 | CCOC(=O)CCNC(=O)c1c[nH]c(-c2cc(Oc3ccc(NC(=O)Nc4cc(C)ccc4F)c(F)c3)ccn2)c1 [Example 231, ethyl 3-{[(5-{4-[3-fluoro-4-({[(2-fluoro-5-methylphenyl)amino]carbonyl}amino)phenoxy]pyridin-2-yl}-1H-pyrrol-3-yl)carbonyl]amino}propanoate] | 32 | 43 | – | – | –
7 | COC(=O)CN(CCCNC(=O)c1c[nH]c(-c2cc(Oc3ccc(NC(=O)Nc4cc(C)ccc4F)cc3)ccn2)c1)CC(=O)OC [Example 232, dimethyl 2,2′-[(3-{[(5-{4-[4-({[(2-fluoro-5-methylphenyl)amino]carbonyl}amino)phenoxy]pyridin-2-yl}-1H-pyrrol-3-yl)carbonyl]amino}propyl)imino]diacetate] | – | 20 | 16 | 9 | 5
8 | Cc1cccc(NC(=O)Nc2ccc(Oc3ccnc(-c4cc(C(=O)NCCCO)c[nH]4)c3)cc2)c1 [Example 237] | – | 19 | 8 | 8 | 3
9 | Cc1ccc(F)c(NC(=O)Nc2ccc(Oc3ccnc(-c4cc(C(=O)NN)c[nH]4)c3)cc2)c1 [Example 241, 1-(2-fluoro-5-methylphenyl)-3-[4-({2-[4-(hydrazinocarbonyl)-1H-pyrrol-2-yl]pyridin-4-yl}oxy)phenyl]urea] | – | 27 | 19 | 10 | 4
10 | COC(=O)[C@@H]1CCCN1CCCNC(=O)c1c[nH]c(-c2cc(Oc3cc(C(=O)Nc4cc(C)ccc4F)ccc3F)ccn2)c1 [Example 243, methyl (2S)-1-{3-[({5-[4-(2-fluoro-5-{[(2-fluoro-5-methylphenyl)amino]carbonyl}phenoxy)pyridin-2-yl]-1H-pyrrol-3-yl}carbonyl)amino]propyl}pyrrolidine-2-carboxylate] | – | 80 | 39 | 16 | 5
11 | CCNC(=O)[C@H](CCC(=O)OC)NC(=O)c1c[nH]c(-c2cc(Oc3cc(C(=O)Nc4cc(C)ccc4F)ccc3F)ccn2)c1 [Example 261, methyl 5-(ethylamino)-4-[({5-[4-(2-fluoro-5-{[(2-fluoro-5-methylphenyl)amino]carbonyl}phenoxy)pyridin-2-yl]-1H-pyrrol-3-yl}carbonyl)amino]-5-oxopentanoate] | 108 | 100 | – | 12 | –
12 | COC(=O)CC[C@H](NC(=O)c1c[nH]c(-c2cc(Oc3ccc(NC(=O)Nc4cc(C)ccc4F)c(F)c3)ccn2)c1)C(=O)OC [Example 270, dimethyl 2-{[(5-{4-[3-fluoro-4-({[(2-fluoro-5-methylphenyl)amino]carbonyl}amino)phenoxy]pyridin-2-yl}-1H-pyrrol-3-yl)carbonyl]amino}pentanedioate] | – | 18 | 8 | 7 | 8
13 | Cc1ccc(F)c(NC(=O)Nc2ccc(Oc3ccnc(-c4cc(C(=O)OCCCN5CCOCC5)c[nH]4)c3)cc2)c1 [Example 274, 3-morpholin-4-ylpropyl 5-{4-[4-({[(2-fluoro-5-methylphenyl)amino]carbonyl}amino)phenoxy]pyridin-2-yl}-1H-pyrrole-3-carboxylate] | – | 27 | 16 | 11 | 10

Source: patent US8906944B2, “Compounds as tyrosine kinase modulators” (Allergan, Inc., priority 2009, dated 2014)
